# In US11945784B2, “IRE1 small molecule inhibitors” (Cornell University, priority 2018, dated 2024):
# Key:
# IRE1α [1] = biological target: T1, IRE1α (Homo sapiens (Human), UniProt O75460); assay: In vitro FRET assay; type: biochemical; settings: XBP1 RNA probe
# Protocol: In vitro FRET assay was performed to evaluate the ability of select compounds to inhibit IRE1, the results of which are summarized in Table 3. To perform the in vitro FRET assay, 1× complete assay buffer (CAB; […], 50 mM sodium citrate pH 7.15, 1 mM magnesium acetate, 0.02% tween 20) was used to dilute SignalChem IRE1α protein to a final concentration of 2 nM. Selected compounds were serially diluted with DMSO in a non-binding black 384-well plate for a total of 15 ul in each well. 2 ul of the serially diluted compound or DMSO control were then added to new wells containing 98 ul of 1×CAB, for a total volume of 100 ul, 10 ul of which were then transferred to wells of a new plate. 5 ul of the diluted IRE1α was then added to each well. 5 ul of a […] XBP1 RNA probe was then added to each well. Fluorescence was then read over 30 minutes in kinetic mode (485/515 nm).
# Two RNA probes were used, XBP1 wildtype (SEQ ID NO: 2) which is able to be spliced by active IRE1α or XBP1 mutant (SEQ ID NO: 3) which is unable to be spliced. Each probe contained a 5′ 6-FAM modification and a 3′ IOWA Black FQ modification.
# A second FRET assay was performed to assess ATP-mediated inhibition. In this case, compounds and IRE1α were prepared and combined as discussed above, with the addition of ATP up to 1 mM final concentration. This mixture was incubated at room temperature for 60 minutes and then 5 ul of 400 nM XBP1 wildtype or mutant RNA probe was added. Plates were then read over 30 minutes in kinetic mode (485/515 nm) and rate of fluorescence increase calculated for different compound dilutions to determine IC50 (Table 3).
# IRE1α [2] = biological target: T1, IRE1α; assay: In vitro luciferase assay (IRE1α Endoribonuclease Nanoluciferase Assay); type: cell-based; settings: 293T cells, XBP1 luciferase reporter
# Protocol: Compounds disclosed herein were assessed for disruption of IRE-1 signaling using a IRE1α Endoribonuclease Nanoluciferase Assay. Briefly, 2.5×10^6 293T cells were seeded in a 10 cm^2 tissue culture plate. About 24 hours later, the cells were transfected with Effectene. In a 15 mL Tube, the following was added: 2 μg XBP1 luciferase reporter plasmid (PGK-Luc2-P2A-XBP1u-Nanoluciferase-PEST); 300 μl EC buffer; and 16 μl Enhancer, followed by incubation at room temp for 5 minutes. Next, 60 μl Effectene (Qiagen 301427) was added, followed by incubation at room temperature for 10 minutes. 2.6 mL cDMEM media was added. Old media was aspirated from the cells, followed by addition of 7 mL fresh media. Full transfection mixture was added dropwise to cells. Cells were incubated for 6 hours, followed by trypsinization, centrifugation and resuspension in 11 mL media. 100 uL of cells were plated per a well in a 96 well plate. A day later, ER stressors of choice+/−inhibitors were added. To harvest, media was aspirated from cells completely, then 50 uL 1× passive lysis buffer (Promega: E1941) was added per well and put on shaker (300 rpm) for 30 minutes at room temperature. Cells were centrifuged, and 15 uL sample per well was added to a new, opaque white 384 well plate (Corning 3570). 15 uL OneGlo (nanoluciferase kit, Promega N1630) was added. Plates were spun down, placed on shaker (300 rpm) for 10 minutes. Plates were read on luminometer, 1000 ms integration time per well. 15 uL Stop and Glo (nanoluciferase kit) was added. Plates were spun down, placed on shaker (300 rpm) for 10 minutes. Plates were read on luminometer, 1000 ms second integration time per well. Recordings are provided below in Table 4
# T1 sequence (O75460 19-977): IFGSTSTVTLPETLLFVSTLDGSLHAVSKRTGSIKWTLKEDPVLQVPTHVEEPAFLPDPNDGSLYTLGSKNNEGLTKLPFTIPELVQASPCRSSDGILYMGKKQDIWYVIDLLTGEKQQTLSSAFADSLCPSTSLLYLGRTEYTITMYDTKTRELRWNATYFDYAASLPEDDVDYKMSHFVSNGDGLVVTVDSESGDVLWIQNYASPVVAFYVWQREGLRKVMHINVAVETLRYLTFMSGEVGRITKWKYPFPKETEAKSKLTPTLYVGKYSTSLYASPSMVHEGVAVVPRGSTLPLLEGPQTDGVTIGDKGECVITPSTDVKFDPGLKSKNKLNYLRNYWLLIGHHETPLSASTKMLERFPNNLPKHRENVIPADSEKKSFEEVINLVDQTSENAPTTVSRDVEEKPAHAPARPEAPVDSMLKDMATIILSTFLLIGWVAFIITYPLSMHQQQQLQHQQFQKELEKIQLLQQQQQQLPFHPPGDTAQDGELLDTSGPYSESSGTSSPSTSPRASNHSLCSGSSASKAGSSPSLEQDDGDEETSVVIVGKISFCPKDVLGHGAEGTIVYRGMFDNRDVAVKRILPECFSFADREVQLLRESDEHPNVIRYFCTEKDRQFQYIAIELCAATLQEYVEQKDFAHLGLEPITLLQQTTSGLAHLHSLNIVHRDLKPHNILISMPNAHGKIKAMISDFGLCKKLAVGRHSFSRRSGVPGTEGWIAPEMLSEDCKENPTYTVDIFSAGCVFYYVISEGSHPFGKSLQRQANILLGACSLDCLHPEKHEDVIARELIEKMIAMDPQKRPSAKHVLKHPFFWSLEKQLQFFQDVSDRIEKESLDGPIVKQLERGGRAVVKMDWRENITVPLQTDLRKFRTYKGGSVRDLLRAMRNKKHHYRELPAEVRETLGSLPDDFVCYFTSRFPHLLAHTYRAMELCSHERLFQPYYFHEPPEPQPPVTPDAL
IC50 (IRE1α [1]) [nM],EC50 (IRE1α [2]) [nM],Compound
≤ 1,≤ 5,"COc1nc(NS(=O)(=O)c2cccc(F)c2Cl)ccc1/C=C/c1cnc(NC2CCC(N(C)C)CC2)nc1 (single isomer, unassigned) [Compound 39, 2-chloro-N-(5-((E)-2-(2-(((1r,4r)-4-(dimethylamino)cyclohexyl)amino)pyrimidin-5-yl)vinyl)-6-methoxypyridin-2-yl)-3-fluorobenzenesulfonamide]"
1 to 5,50 to 100,"CCCc1nc(NC2CCC(N)CC2)ncc1/C=C/c1ccc(NS(=O)(=O)c2ccccc2Cl)cc1 (centres unmarked) [Compound 4, N-(4-((E)-2-(2-(((1r,4r)-4-aminocyclohexyl)amino)-4-propylpyrimidin-5-yl)vinyl)phenyl)-2-chlorobenzenesulfonamide]"
≤ 1,≤ 5,"Cc1cc(NS(=O)(=O)c2ccccc2Cl)ccc1/C=C/c1cnc(NC2CCC(N)CC2)nc1 (centres unmarked) [Compound 5, N-(4-((E)-2-(2-(((1r,4r)-4-aminocyclohexyl)amino)pyrimidin-5-yl)vinyl)-3-methylphenyl)-2-chlorobenzenesulfonamide]"
≤ 1,≤ 5,"COc1nc(NS(=O)(=O)c2ccccc2Cl)ccc1/C=C/c1cnc(NC2CCC(N)CC2)nc1 (centres unmarked) [Compound 9, N-(5-((E)-2-(2-(((1r,4r)-4-aminocyclohexyl)amino)pyrimidin-5-yl)vinyl)-6-methoxypyridin-2-yl)-2-chlorobenzenesulfonamide]"
≤ 1,100 to 10000,"COc1cc(NS(=O)(=O)c2ccccc2Cl)ccc1CCc1cnc(NC2CCC(N)CC2)nc1 (centres unmarked) [Compound 15, N-(4-(2-(2-(((1r,4r)-4-aminocyclohexyl)amino)pyrimidin-5-yl)ethyl)-3-methoxyphenyl)-2-chlorobenzenesulfonamide]"
≤ 1,100 to 10000,"CCc1cc(NS(=O)(=O)c2ccccc2Cl)cnc1CCc1cnc(NC2CCC(N)CC2)nc1 (centres unmarked) [Compound 16, N-(6-(2-(2-(((1r,4r)-4-aminocyclohexyl)amino)pyrimidin-5-yl)ethyl)-5-ethylpyridin-3-yl)-2-chlorobenzenesulfonamide]"
100 to 1000,,"Cc1nc(NS(=O)(=O)c2ccccc2Cl)ccc1CCc1cnc(NC2CCC(O)CC2)nc1 (centres unmarked) [Compound 20, 2-chloro-N-(5-(2-(2-(((1r,4r)-4-hydroxycyclohexyl)amino)pyrimidin-5-yl)ethyl)-6-methylpyridin-2-yl)benzenesulfonamide]"
1 to 5,,"Cc1nc(NS(=O)(=O)c2ccccc2Cl)ccc1CCc1cnc(NC2CCC(N(C)C)CC2)nc1 (centres unmarked) [Compound 21, 2-chloro-N-(5-(2-(2-(((1r,4r)-4-(dimethylamino)cyclohexyl)amino)pyrimidin-5-yl)ethyl)-6-methylpyridin-2-yl)benzenesulfonamide]"
≤ 1,≤ 5,"Cc1nc(NS(=O)(=O)c2ccccc2Cl)c(F)cc1/C=C/c1cnc(NC2CCC(N(C)C)CC2)nc1 (centres unmarked) [Compound 22, 2-chloro-N-(5-((E)-2-(2-(((1r,4r)-4-(dimethylamino)cyclohexyl)amino)pyrimidin-5-yl)vinyl)-3-fluoro-6-methylpyridin-2-yl)benzenesulfonamide]"
≤ 1,≤ 5,"Cc1cc(NS(=O)(=O)c2ccccc2Cl)c(F)cc1/C=C/c1cnc(NC2CCC(N(C)C)CC2)nc1 (centres unmarked) [Compound 28, 2-chloro-N-(4-((E)-2-(2-(((1r,4r)-4-(dimethylamino)cyclohexyl)amino)pyrimidin-5-yl)vinyl)-2-fluoro-5-methylphenyl)benzenesulfonamide]"
≤ 1,≤ 5,"CCc1nc(NS(=O)(=O)c2ccccc2Cl)ccc1/C=C/c1cnc(NC2CCC(N(C)C)CC2)nc1 (centres unmarked) [Compound 29, 2-chloro-N-(5-((E)-2-(2-(((1r,4r)-4-(dimethylamino)cyclohexyl)amino)pyrimidin-5-yl)vinyl)-6-ethylpyridin-2-yl)benzenesulfonamide]"
≤ 1,≤ 5,"CCN(CC)C1CCC(Nc2ncc(/C=C/c3ccc(NS(=O)(=O)c4ccccc4Cl)nc3C)cn2)CC1 (centres unmarked) [Compound 30, 2-chloro-N-(5-((E)-2-(2-(((1r,4r)-4-(diethylamino)cyclohexyl)amino)pyrimidin-5-yl)vinyl)-6-methylpyridin-2-yl)benzenesulfonamide]"
≤ 1,≤ 5,"Cc1nc(NS(=O)(=O)c2ccc(F)cc2Cl)ccc1/C=C/c1cnc(NC2CCC(N(C)C)CC2)nc1 (centres unmarked) [Compound 31, 2-chloro-N-(5-((E)-2-(2-(((1r,4r)-4-(dimethylamino)cyclohexyl)amino)pyrimidin-5-yl)vinyl)-6-methylpyridin-2-yl)-4-fluorobenzenesulfonamide]"
≤ 1,≤ 5,"COc1nc(NS(=O)(=O)c2ccc(F)cc2Cl)ccc1/C=C/c1cnc(NC2CCC(N(C)C)CC2)nc1 (centres unmarked) [Compound 32, 2-chloro-N-(5-((E)-2-(2-(((1r,4r)-4-(dimethylamino)cyclohexyl)amino)pyrimidin-5-yl)vinyl)-6-methoxypyridin-2-yl)-4-fluorobenzenesulfonamide]"
≤ 1,≤ 5,"Cc1nc(NS(=O)(=O)c2cccc(F)c2Cl)ccc1/C=C/c1cnc(NC2CCC(N(C)C)CC2)nc1 (centres unmarked) [Compound 33, 2-chloro-N-(5-((E)-2-(2-(((1r,4r)-4-(dimethylamino)cyclohexyl)amino)pyrimidin-5-yl)vinyl)-6-methylpyridin-2-yl)-3-fluorobenzenesulfonamide]"
≤ 1,≤ 5,"CN(C)C1CCC(Nc2ncc(/C=C/c3ccc(NS(=O)(=O)c4ccccc4Cl)cc3)cn2)CC1 (centres unmarked) [Compound 34, 2-chloro-N-(4-((E)-2-(2-(((1r,4r)-4-(dimethylamino)cyclohexyl)amino)pyrimidin-5-yl)vinyl)phenyl)benzenesulfonamide]"
≤ 1,5 to 50,"CN(C)C1CCC(Nc2ncc(/C=C/c3ccc(NS(=O)(=O)c4ccccc4Cl)c(F)c3)cn2)CC1 (centres unmarked) [Compound 35, 2-chloro-N-(4-((E)-2-(2-(((1r,4r)-4-(dimethylamino)cyclohexyl)amino)pyrimidin-5-yl)vinyl)-2-fluorophenyl)benzenesulfonamide]"
≤ 1,≤ 5,"CN(C)C1CCC(Nc2ncc(/C=C/c3ccc(NS(=O)(=O)c4ccccc4Cl)nc3)cn2)CC1 (centres unmarked) [Compound 36, 2-chloro-N-(5-((E)-2-(2-(((1r,4r)-4-(dimethylamino)cyclohexyl)amino)pyrimidin-5-yl)vinyl)pyridin-2-yl)benzenesulfonamide]"
≤ 1,5 to 50,"CN(C)C1CCC(Nc2ncc(/C=C/c3cnc(NS(=O)(=O)c4ccccc4Cl)cn3)cn2)CC1 (centres unmarked) [Compound 37, 2-chloro-N-(5-((E)-2-(2-(((1r,4r)-4-(dimethylamino)cyclohexyl)amino)pyrimidin-5-yl)vinyl)pyrazin-2-yl)benzenesulfonamide]"
≤ 1,,"CN(C)C1CCC(Nc2ncc(C=Cc3cnc(NS(=O)(=O)c4ccccc4Cl)nc3)cn2)CC1 (centres unmarked) [Compound 40, 2-chloro-N-(5-(2-(2-(((1r,4r)-4-(dimethylamino)cyclohexyl)amino)pyrimidin-5-yl)vinyl)pyrimidin-2-yl)benzenesulfonamide]"
1 to 5,,"COc1nc(NS(=O)(=O)c2cnccc2Cl)ncc1C=Cc1cnc(NC2CCC(N(C)C)CC2)nc1 (centres unmarked) [Compound 43, 4-chloro-N-(5-(2-(2-(((1r,4r)-4-(dimethylamino)cyclohexyl)amino)pyrimidin-5-yl)vinyl)-4-methoxypyrimidin-2-yl)pyridine-3-sulfonamide]"
